In PMC5359596, “A new electro-optical approach for conductance measurement: an assay for the study of drugs acting on ligand-gated ion channels” (Scientific Reports, 2017):

Assays:
Assay type in all cases: cell-based
P2RX7 receptor [1] = target: T1, P2RX7 receptor (Homo sapiens, UniProt Q99572); assay: FLIPR (GCaMP2.1 calcium biosensor), HEK-293 expressing P2RX7; conditions: HEK-293_P2RX7, agonist
T1 construct: host or cells: HEK-293
T1 sequence (Q99572 1-595): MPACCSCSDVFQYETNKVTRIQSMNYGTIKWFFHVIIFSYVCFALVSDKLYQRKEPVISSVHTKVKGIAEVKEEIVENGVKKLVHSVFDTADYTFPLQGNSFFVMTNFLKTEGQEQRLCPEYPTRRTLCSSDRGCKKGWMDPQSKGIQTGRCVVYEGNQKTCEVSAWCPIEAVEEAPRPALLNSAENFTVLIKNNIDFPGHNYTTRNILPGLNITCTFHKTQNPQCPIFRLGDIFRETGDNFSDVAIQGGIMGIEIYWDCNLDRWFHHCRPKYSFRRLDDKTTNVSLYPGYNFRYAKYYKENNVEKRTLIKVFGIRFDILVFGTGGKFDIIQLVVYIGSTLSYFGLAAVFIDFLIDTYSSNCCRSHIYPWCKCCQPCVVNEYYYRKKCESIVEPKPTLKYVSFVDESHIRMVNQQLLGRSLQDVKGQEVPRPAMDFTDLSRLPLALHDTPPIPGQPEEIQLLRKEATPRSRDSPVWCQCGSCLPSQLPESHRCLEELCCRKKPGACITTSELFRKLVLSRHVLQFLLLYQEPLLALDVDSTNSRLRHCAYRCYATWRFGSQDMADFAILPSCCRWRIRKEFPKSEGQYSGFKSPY
Experimental: (§1) Intracellular calcium concentration was measured by: GCaMP2.1 calcium biosensor for P2RX7; Screen Quest™ Fluo-8 No. Wash Calcium Assay Kit (AAT Bioquest) for TRPV1; and Calcium Assay Kit (Molecular Devices) for TRPM2.
For the P2RX7 assay, cells were preincubated in Low Calcium, Magnesium free Tyrode’s Buffer.
Reference blockers were injected at FLIPRTetra instrument and fluorescence signal was recorded. After 10 minutes a second injection of reference activators was performed and fluorescence was measured.

P2RX7 receptor [2] = target: T1, P2RX7 receptor; assay: ionChannelΩ conductance assay, HEK-293 expressing P2RX7; conditions: HEK-293_P2RX7, agonist
hTRPV1 = target: T2, hTRPV1 (Homo sapiens, UniProt Q8NER1); assay: ionChannelΩ electro-optical conductance assay, CHO-K1 expressing hTRPV1; conditions: scatter plot linear regression, highest capsaicin concentrations
T2 construct: host or cells: CHO-K1
Experimental: (§2) Test current pulses (mono or biphasic) were administered to cells by parallel electrodes placed on the plane of the cells. Pulse length was several times the membrane time constant of the investigated cells in order to acquire images at a time of the pulse when plateau was fully established. Current intensity was set high enough to generate significant variations in the fluorescence signal, still avoiding membrane electroporation[35]. More specifically, a plot of the ΔFc/FRc values obtained at increasing current values was obtained: only current intensities giving correlative values lying on the linear part of the plot were used. […]
(§3) Images are processed off-line by a MATLAB-based Image Analysis program, developed in the laboratory, which offers the possibility to employ different filters, parameters and types of analysis in order to extract the data necessary to draw CRCs. […] More specifically, pixels were selected as part of the shape mask when the following requirements were met: to be part of the cell (recognition of object boundary from fluorescence signals); to be confined to the plasma membrane region (calculation of a ring of depth boundaries). […] In either case, mean values ± standard error (calculated from values obtained in the different sampling areas of the same well) were obtained at the various concentration of the drug and fitted by a nonlinear regression curve. […]

TRPM2 [3] = target: T3, TRPM2 (Homo sapiens, UniProt O94759); assay: FLIPR (Calcium Assay Kit), HEK-293 expressing TRPM2; conditions: HEK-293_TRPM2
T3 construct: host or cells: HEK-293
Experimental: as §1

TRPM2 [4] = target: T3, TRPM2; assay: ionChannelΩ conductance assay, HEK-293 expressing TRPM2; conditions: HEK-293_TRPM2
Experimental: as §2, §3

HeLa cells = assay: Optical detection of plasma membrane resistance changes in HeLa cells (conventional microscope); conditions: increasing concentrations
From the text: Resistance (R) determines the magnitude of the passive changes observed in membrane potential in response to a constant current: the lower the resistance, the lower the membrane potential variation (Supplementary Figure 1). Accordingly, we investigated the possibility of using local membrane potential variations imposed by a test square current pulse to measure changes in membrane resistance. The variation of VSD fluorescence values during the current pulse, were quantified as ΔF, i.e. the difference between the plateau value reached during the electric stimulus (FS) and the pre-stimulus, resting, value (FR) (Supplementary Figure 1). ΔF values were further normalized to their respective resting values (ΔF/FR) to take into account even minimal variations of VSD fluorescence due to dye bleaching. […]
Images were processed off-line by an image analysis program developed in MATLAB (The MathWorks). […] Fluorescence intensity values were calculated as the mean of the values obtained in the selected ROIs within the 3 stimuli series administered in the different conditions (before and during the plateau phase of the pulse, in the absence and in the presence of a test compound). […]

T3 sequence (O94759 whole entry): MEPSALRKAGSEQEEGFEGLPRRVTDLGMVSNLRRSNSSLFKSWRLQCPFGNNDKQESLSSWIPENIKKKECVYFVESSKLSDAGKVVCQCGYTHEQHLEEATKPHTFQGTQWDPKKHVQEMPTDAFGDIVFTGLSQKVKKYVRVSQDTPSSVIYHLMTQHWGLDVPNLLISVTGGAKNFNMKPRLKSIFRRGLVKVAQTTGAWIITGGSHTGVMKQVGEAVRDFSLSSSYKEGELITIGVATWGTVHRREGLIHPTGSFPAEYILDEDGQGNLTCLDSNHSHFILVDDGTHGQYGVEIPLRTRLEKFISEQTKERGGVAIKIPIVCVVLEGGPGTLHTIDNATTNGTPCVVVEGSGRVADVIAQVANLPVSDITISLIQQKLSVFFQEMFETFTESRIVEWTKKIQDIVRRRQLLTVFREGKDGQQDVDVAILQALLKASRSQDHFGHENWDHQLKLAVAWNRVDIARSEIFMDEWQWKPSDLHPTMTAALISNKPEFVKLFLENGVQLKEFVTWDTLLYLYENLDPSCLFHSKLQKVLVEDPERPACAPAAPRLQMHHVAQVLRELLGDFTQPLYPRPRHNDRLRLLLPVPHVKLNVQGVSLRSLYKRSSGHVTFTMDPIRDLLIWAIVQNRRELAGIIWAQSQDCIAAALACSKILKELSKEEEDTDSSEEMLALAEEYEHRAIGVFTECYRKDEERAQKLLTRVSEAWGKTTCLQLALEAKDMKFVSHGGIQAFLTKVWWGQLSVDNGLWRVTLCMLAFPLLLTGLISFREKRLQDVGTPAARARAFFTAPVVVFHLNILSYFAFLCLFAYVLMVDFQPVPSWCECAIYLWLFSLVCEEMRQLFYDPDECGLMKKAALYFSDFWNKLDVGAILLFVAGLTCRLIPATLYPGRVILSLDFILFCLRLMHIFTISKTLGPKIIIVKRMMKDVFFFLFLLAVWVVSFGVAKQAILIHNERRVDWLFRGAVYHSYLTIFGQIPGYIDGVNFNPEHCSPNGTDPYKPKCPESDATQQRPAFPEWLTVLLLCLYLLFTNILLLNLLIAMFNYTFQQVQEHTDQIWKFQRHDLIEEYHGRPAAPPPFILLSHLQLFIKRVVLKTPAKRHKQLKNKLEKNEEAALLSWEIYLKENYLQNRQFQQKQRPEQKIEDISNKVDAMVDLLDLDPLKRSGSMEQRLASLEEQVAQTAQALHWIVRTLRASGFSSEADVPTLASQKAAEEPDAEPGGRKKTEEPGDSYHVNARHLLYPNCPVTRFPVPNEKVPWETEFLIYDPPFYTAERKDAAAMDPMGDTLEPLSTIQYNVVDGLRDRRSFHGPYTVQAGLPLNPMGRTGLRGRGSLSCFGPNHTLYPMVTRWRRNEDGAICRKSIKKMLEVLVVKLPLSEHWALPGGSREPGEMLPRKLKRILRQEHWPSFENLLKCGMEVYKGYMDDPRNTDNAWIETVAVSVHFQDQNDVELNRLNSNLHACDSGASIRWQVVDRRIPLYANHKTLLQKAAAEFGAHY
T2 sequence (Q8NER1 whole entry): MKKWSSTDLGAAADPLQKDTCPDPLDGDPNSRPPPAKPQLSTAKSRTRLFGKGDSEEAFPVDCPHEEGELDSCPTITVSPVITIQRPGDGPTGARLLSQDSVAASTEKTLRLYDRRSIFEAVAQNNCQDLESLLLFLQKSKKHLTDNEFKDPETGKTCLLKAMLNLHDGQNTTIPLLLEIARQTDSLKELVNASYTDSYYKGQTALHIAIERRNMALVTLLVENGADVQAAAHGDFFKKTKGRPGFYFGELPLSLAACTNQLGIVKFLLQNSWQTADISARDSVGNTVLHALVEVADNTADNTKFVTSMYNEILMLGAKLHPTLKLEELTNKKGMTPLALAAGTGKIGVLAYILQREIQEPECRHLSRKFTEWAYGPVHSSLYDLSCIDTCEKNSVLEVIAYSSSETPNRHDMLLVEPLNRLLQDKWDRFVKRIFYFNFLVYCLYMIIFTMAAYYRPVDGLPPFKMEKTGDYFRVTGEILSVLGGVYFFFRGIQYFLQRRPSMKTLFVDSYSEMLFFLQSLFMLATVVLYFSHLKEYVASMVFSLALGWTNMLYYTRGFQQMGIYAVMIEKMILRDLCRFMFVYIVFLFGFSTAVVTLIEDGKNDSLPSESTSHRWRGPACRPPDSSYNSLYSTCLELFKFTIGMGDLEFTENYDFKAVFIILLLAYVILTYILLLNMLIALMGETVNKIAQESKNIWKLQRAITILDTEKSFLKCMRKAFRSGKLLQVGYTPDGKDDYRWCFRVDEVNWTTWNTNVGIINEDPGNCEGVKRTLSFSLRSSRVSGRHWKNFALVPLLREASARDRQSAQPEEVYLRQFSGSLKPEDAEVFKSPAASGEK

## 2′(3′)-O-(4-Benzoylbenzoyl)adenosine 5′-triphosphate triethylammonium salt [BzATP]
P2RX7 receptor [1]
  EC50: 6.35 µM
P2RX7 receptor [2]
  EC50: 3.4 µM

## COc1cc(CNC(=O)CCCC/C=C/C(C)C)ccc1O [capsaicin]
hTRPV1
  unitary slope resistance, final value at increasing concentrations: ~20 % of control

## COC1=C(N)C(=O)c2nc(-c3nc(C(=O)O)c(C)c(-c4ccc(OC)c(OC)c4O)c3N)ccc2C1=O [streptonigrin]
TRPM2 [3]
  EC50: 4.3 µM
TRPM2 [4]
  EC50: 14.1 µM

## Streptolysin-O: bacterial protein able to insert into the eukaryotic plasma membrane and form non-selective ion pores
HeLa cells
  VSD responses to electric square pulses (membrane resistance): progressively reduced in amplitude
